Results as given in US9801903B2, “Targeting cancer with metabolic therapy and hyperbaric oxygen” (priority 2012, dated 2017).

Tested on: VM-M3/Fluc cells
Test: Whole animal tumor bioluminescence (tumor size and metastatic spread)
Assay type: in vivo, VM/Dk mice
Settings: Example 2; day 21 post-inoculation; FIG. 8
Description: VM-M3/Fluc cells (T. Seyfried; Boston College) were obtained from a spontaneous tumor in a VM/Dk inbred mouse and adapted to cell culture (Huysentruyt et al., Metastatic cancer cells with macrophage properties: evidence from a new murine tumor model. Intl J Can. 2008, 123(1):73-84). […] VM-M3/Fluc cells are transfected with the firefly luciferase gene which produces a bioluminescent product in the presence of the enzymatic substrate luciferin (Shelton, et al. (2010) A novel pre-clinical in vivo mouse model for malignant brain tumor growth and invasion. Journal of neuro-oncology 99: 165-176). Bioluminescence can be detected and measured with the Xenogen IVIS Lumina System (Caliper LS). […] Bioluminescent signal was recorded using a 1 second exposure time on the IVIS Lumina cooled CCD camera. Progression of the metastatic cancer was measured by tracking the bioluminescent signal of the whole animal over time. Tumor bioluminescence will be measured once weekly for the duration of the study.
Tumor progression was measured using bioluminescence on the Xenogen IVIS Lumina cooled CCD camera (Caliper LS, Hopkinton, Mass.). […] Whole animal bioluminescent signal was measured in photons/sec once a week as an indicator of metastatic tumor size and spread. Tumor progression was measured 21 days after tumor cell inoculation.

## CC(O)CCO (centres unmarked) [BD, 1,3-butanediol]
  tumor bioluminescence / tumor growth and metastasis: greatly reduced tumor growth and reduced metastasis of the tumor

## CC(=O)CC(=O)OCC[C@@H](C)OC(=O)CC(C)=O [KE, R,S-1,3-butanediol-diacetoacetate ester]
  tumor bioluminescence / tumor growth and metastasis: greatly reduced tumor growth and reduced metastasis of the tumor
